Assay results from patent US11279733B2, “Peptide antibiotics” (priority 2017, dated 2022).
≈ marks a conversion by molar mass, not a printed value. Read-outs that look alike come from different tables or passages of the source. Positions of bridges follow the written chain, without caps; N, C: chain ends. Non-standard residues stand in square brackets, D forms with d. Residues, ends and D or L forms follow the SMILES beside them. *: point of attachment. Bip = N[C@@H](Cc1ccc(-c2ccccc2)cc1)C(=O)O; Decanoyl(3R-OH) = CCCCCCC[C@@H](O)CC(=O)*; dBip = N[C@H](Cc1ccc(-c2ccccc2)cc1)C(=O)O; dDab = NCC[C@@H](N)C(=O)O; Dab = NCC[C@H](N)C(=O)O; Dap = NC[C@H](N)C(=O)O

How the values were obtained:
[1] = test system: P. aeruginosa GN_043, PmxR
Procedure, shortened: (§1)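 Mid-log cultures grown in Mueller Hinton broth at 37° C were tested by 2-fold broth microdilution at 5×10^5 CFU/mL final. Compounds were dissolved in water and tested over a final range of 32 to 0.015 μg/mL.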

[2] = test system: K. pneumoniae ATCC BAA-2146, NDM-1 pos
Procedure, shortened: as §1

E. coli ATCC 25922 = test system: E. coli ATCC 25922
Procedure, shortened: as §1

[3] = test system: K. pneumoniae GN_106, PmxR
Procedure, shortened: as §1

[4] = test system: P. aeruginosa GN_105, PmxR
Procedure, shortened: as §1

A. baumannii ATCC 19606 = test system: A. baumannii ATCC 19606
Procedure, shortened: as §1

[5] = test system: K. pneumoniae GN_102 PmxR
Procedure, shortened: as §1

[6] = test system: S. aureus ATCC 25923, MSSA
Procedure, shortened: as §1

P. aeruginosa ATCC 27853 = test system: P. aeruginosa ATCC 27853
Procedure, shortened: as §1

[7] = test system: K. pneumoniae ATCC 700603, MDR
Procedure, shortened: as §1

A. baumannii GN_093 PmxR = test system: A. baumannii GN_093 PmxR
Procedure, shortened: as §1

K. pneumoniae ATCC 13883 = test system: K. pneumoniae ATCC 13883
Procedure, shortened: as §1

in vitro = conditions: human
Experimental: Cytotoxicity of the synthesised peptides was evaluated by comparison with commercially available colistin (polymyxin E), polymyxin B (Sigma chemical Co., St. Louis, Mo., U.S.A.) and synthetic octapeptin C4 by conducting lactate dehydrogenase (LDH) assay. CC50 values calculated based on curve fitting of dose dependent inhibition of cell growth represented the cytotoxicity of the peptide. Human kidney 2 (HK2) cells were seeded as 2000 cells per well in a 384 well cell culture plate in a final volume of 20 μL in DMEM/F12 medium (Invitrogen #11330057), in which 10% of FBS was added. Cells were incubated for 24 hours at 37° C., 5% CO2 to allow cells to attach to the plates. Similar conditions were employed for HEK293 and HepG2 cytotoxicity assays.
Colistin and polymyxin B were tested from a range of 2 mM to 0.9 μM. 120 μL of the 1 mM stock solutions in water of each synthesised peptide were freeze-dried and processed for LDH assay. After freeze-dry procedure, the compounds were reconstituted into 600 μM solutions using culture media. All tested compounds were diluted from 600 μM to 0.27 μM in 3-fold dilutions. Then 20 μL of each dilution was added into 20 uL of culture medium in quadruplicate to reach the final concentrations. The cells were incubated with the compounds for 24 h at 37° C., 5% CO2. After the incubation, 5 μL of culture medium was added to 50 μL of LDH assay buffer and incubated for 1 h at room temperature. The absorbance was read at 450 nm using Polarstar. The data was then analysed by Prism software. […] Nephrotoxicity Assessment in Human Proximal Tubule Cells.

SMILES | MIC P. aeruginosa GN_043, PmxR ([1]; P. aeruginosa GN_043, PmxR) [µg/mL] | MIC K. pneumoniae ATCC BAA-2146, NDM-1 pos ([2]; ATCC BAA-2146) [µg/mL] | MIC E. coli ATCC 25922 (E. coli ATCC 25922; ATCC 25922) [µg/mL] | MIC K. pneumoniae GN_106, PmxR ([3]; GN 106, PmxR) [µg/mL] | MIC P. aeruginosa GN_105, PmxR ([4]; GN 105, PmxR) [µg/mL] | MIC A. baumannii ATCC 19606 (A. baumannii ATCC 19606; ATCC 19606) [µg/mL] | MIC K. pneumoniae GN_102 PmxR ([5]; GN 102 PmxR) [µg/mL] | MIC S. aureus ATCC 25923, MSSA ([6]; ATCC 25923) [µg/mL] | MIC P. aeruginosa ATCC 27853 (P. aeruginosa ATCC 27853; ATCC 27853) [µg/mL] | MIC K. pneumoniae ATCC 700603, MDR ([7]; ATCC 700603) [µg/mL] | MIC A. baumannii GN_093 PmxR (A. baumannii GN_093 PmxR; GN 093 PmxR) [µg/mL] | MIC K. pneumoniae ATCC 13883 (K. pneumoniae ATCC 13883; ATCC 13883) [µg/mL] | CC50 at 24 h (in vitro) [µM] | MIC P. aeruginosa GN_043, PmxR ([1]; polymyxin-resistant) [µg/mL] | also measured
CCCCCCC[C@@H](O)CC(=O)N[C@H](CCN)C(=O)N[C@H]1CCNC(=O)[C@H](CC(C)C)NC(=O)[C@H](CCN)NC(=O)[C@H](CCN)NC(=O)[C@H](CC(C)C)NC(=O)[C@@H](Cc2ccc(-c3ccccc3)cc2)NC(=O)[C@H](CCN)NC1=O [compound 5010, 3(R)OH-nC9CO-D-Dab-cyc[L-Dab-L-Dab-D-Bip-L-Leu-L-Dab-L-Dab-L-Leu]] ({Decanoyl(3R-OH)}-[dDab][Dab][Dab][dBip]L[Dab][Dab]L; lactam 2-C) | 2 (≈ 1.78 µM) | 4 (≈ 3.57 µM) | 2 (≈ 1.78 µM) | 2 (≈ 1.78 µM) | 2 (≈ 1.78 µM) | 4 (≈ 3.57 µM) | 4 (≈ 3.57 µM) | 2 (≈ 1.78 µM) | 4 (≈ 3.57 µM) | 4 (≈ 3.57 µM) | 4 (≈ 3.57 µM) | 2 (≈ 1.78 µM) | 75 | – | –
CCCCCCC[C@@H](O)CC(=O)N[C@H](CCN)C(=O)N[C@H]1CCNC(=O)[C@H](Cc2ccccc2)NC(=O)[C@H](CN)NC(=O)[C@H](CCN)NC(=O)[C@H](CC(C)C)NC(=O)[C@@H](Cc2ccc(-c3ccccc3)cc2)NC(=O)[C@H](CCN)NC1=O [compound 5384, 3(R)OH-nC9CO-D-Dab-cyc[L-Dab-L-Dab-D-Bip-L-Leu-L-Dab-L-Dap-L-Phe]] ({Decanoyl(3R-OH)}-[dDab][Dab][Dab][dBip]L[Dab][Dap]F; lactam 2-C) | – | 4 (≈ 3.51 µM) | 4 (≈ 3.51 µM) | 8 (≈ 7.01 µM) | 4 (≈ 3.51 µM) | 8 (≈ 7.01 µM) | 16 (≈ 14 µM) | 4 (≈ 3.51 µM) | 4 (≈ 3.51 µM) | 8 (≈ 7.01 µM) | 4 (≈ 3.51 µM) | 4 (≈ 3.51 µM) | 24 | 4 (≈ 3.51 µM) | –
CCCCCCC[C@@H](O)CC(=O)N[C@H](CCN)C(=O)N[C@H]1CCNC(=O)[C@H](Cc2ccccc2)NC(=O)[C@H](CN)NC(=O)[C@H](CCN)NC(=O)[C@H](CC(C)C)NC(=O)[C@@H](Cc2ccccc2)NC(=O)[C@H](CCN)NC1=O [compound 5385, 3(R)OH-nC9CO-D-Dab-cyc[L-Dab-L-Dab-D-Phe-L-Leu-L-Dab-L-Dap-L-Phe]] ({Decanoyl(3R-OH)}-[dDab][Dab][Dab][dF]L[Dab][Dap]F; lactam 2-C) | – | 4 (≈ 3.76 µM) | 4 (≈ 3.76 µM) | 16 (≈ 15 µM) | 2 (≈ 1.88 µM) | 8 (≈ 7.52 µM) | 8 (≈ 7.52 µM) | 8 (≈ 7.52 µM) | 2 (≈ 1.88 µM) | 8 (≈ 7.52 µM) | 16 (≈ 15 µM) | 4 (≈ 3.76 µM) | 41 | 2 (≈ 1.88 µM) | –
CCCCCCC[C@@H](O)CC(=O)N[C@H](CCN)C(=O)N[C@H]1CCNC(=O)[C@H]([C@@H](C)O)NC(=O)[C@H](CN)NC(=O)[C@H](CCN)NC(=O)[C@H](CC(C)C)NC(=O)[C@@H](Cc2ccccc2)NC(=O)[C@H](CCN)NC1=O [compound 5386, 3(R)OH-nC9CO-D-Dab-cyc[L-Dab-L-Dab-D-Phe-L-Leu-L-Dab-L-Dap-L-Thr]] ({Decanoyl(3R-OH)}-[dDab][Dab][Dab][dF]L[Dab][Dap]T; lactam 2-C) | 1 (≈ 0.982 µM) | – | – | – | – | – | – | – | – | – | – | – | 154 | – | MIC K. pneumoniae ATCC BAA-2146, NDM-1 pos ([2]; K. pneumoniae ATCC BAA-2146, NDM-1 pos): 4 µg/mL (≈ 3.93 µM); MIC E. coli ATCC 25922 (E. coli ATCC 25922; E. coli ATCC 25922): 2 µg/mL (≈ 1.96 µM); MIC K. pneumoniae GN_106, PmxR ([3]; K. pneumoniae GN_106, PmxR): >32 µg/mL; MIC P. aeruginosa GN_105, PmxR ([4]; P. aeruginosa GN_105, PmxR): 4 µg/mL (≈ 3.93 µM); MIC A. baumannii ATCC 19606 (A. baumannii ATCC 19606; A. baumannii ATCC 19606): >32 µg/mL; MIC K. pneumoniae GN_102 PmxR ([5]; K. pneumoniae GN_102 PmxR): 32 µg/mL (≈ 31.4 µM); MIC S. aureus ATCC 25923, MSSA ([6]; S. aureus ATCC 25923, MSSA): >32 µg/mL; MIC P. aeruginosa ATCC 27853 (P. aeruginosa ATCC 27853; P. aeruginosa ATCC 27853): 4 µg/mL (≈ 3.93 µM); MIC K. pneumoniae ATCC 700603, MDR ([7]; K. pneumoniae ATCC 700603, MDR): 2 µg/mL (≈ 1.96 µM); MIC A. baumannii GN_093 PmxR (A. baumannii GN_093 PmxR; A. baumannii GN_093 PmxR): >32 µg/mL; MIC K. pneumoniae ATCC 13883 (K. pneumoniae ATCC 13883; K. pneumoniae ATCC 13883): 16 µg/mL (≈ 15.7 µM)
CCCCCCC[C@@H](O)CC(=O)N[C@H](CCN)C(=O)N[C@H]1CCNC(=O)[C@H]([C@@H](C)O)NC(=O)[C@H](CCN)NC(=O)[C@H](CCN)NC(=O)[C@H](CC(C)C)NC(=O)[C@@H](Cc2ccccc2)NC(=O)[C@H](CCN)NC1=O [compound 5387, 3(R)OH-nC9CO-D-Dab-cyc[L-Dab-L-Dab-D-Phe-L-Leu-L-Dab-L-Dab-L-Thr]] ({Decanoyl(3R-OH)}-[dDab][Dab][Dab][dF]L[Dab][Dab]T; lactam 2-C) | – | 1 (≈ 0.969 µM) | 2 (≈ 1.94 µM) | >32 | >32 | 8 (≈ 7.75 µM) | >32 | >32 | 1 (≈ 0.969 µM) | 2 (≈ 1.94 µM) | >32 | 2 (≈ 1.94 µM) | 210 | 2 (≈ 1.94 µM) | –
CCCCCCC[C@@H](O)CC(=O)N[C@H](CCN)C(=O)N[C@H]1CCNC(=O)[C@H]([C@@H](C)O)NC(=O)[C@H](CCNC(=O)[C@@H](N)CCCNC(=N)N)NC(=O)[C@H](CCN)NC(=O)[C@H](CC(C)C)NC(=O)[C@@H](Cc2ccccc2)NC(=O)[C@H](CCN)NC1=O [compound 5603, 3(R)OH-nC9CO-D-Dab-cyc[L-Dab-L-Dab-D-Phe-L-Leu-L-Dab-L-Dab(L-Arg)-L-Thr]] ({Decanoyl(3R-OH)}-[dDab][Dab][Dab][dF]L[Dab][Dab](Arg)T; lactam 2-C) | 32 (≈ 26.9 µM) | >32 | 32 (≈ 26.9 µM) | >32 | 32 (≈ 26.9 µM) | >32 | >32 | >32 | 8 (≈ 6.73 µM) | 16 (≈ 13.5 µM) | >32 | >32 | 103 | – | –
CCCCCCC[C@@H](O)CC(=O)N[C@H](CCN)C(=O)N[C@H]1CCNC(=O)[C@H]([C@@H](C)O)NC(=O)[C@H](CCN)NC(=O)[C@H](CCN)NC(=O)[C@H](Cc2ccc(-c3ccccc3)cc2)NC(=O)[C@@H](Cc2ccccc2)NC(=O)[C@H](CCN)NC1=O [compound 5607, 3(R)OH-nC9CO-D-Dab-cyc[L-Dab-L-Dab-D-Phe-L-Bip-L-Dab-L-Dab-L-Thr]] ({Decanoyl(3R-OH)}-[dDab][Dab][Dab][dF][Bip][Dab][Dab]T; lactam 2-C) | 2 (≈ 1.75 µM) | 4 (≈ 3.5 µM) | 8 (≈ 7 µM) | 32 (≈ 28 µM) | 2 (≈ 1.75 µM) | 8 (≈ 7 µM) | 32 (≈ 28 µM) | 4 (≈ 3.5 µM) | 4 (≈ 3.5 µM) | 4 (≈ 3.5 µM) | >32 | 16 (≈ 14 µM) | 19 | – | –
